# From article PMC7002704, “Inhibitory effect of Citrus flavonoids on the in vitro transport activity of human urate transporter 1 (URAT1/SLC22A12), a renal re-absorber of urate” (NPJ Science of Food, 2020)
# Read-outs that look alike come from different tables or passages of the source.
# What was measured:
# [1] = molecular target: T1, urate transporter 1 (URAT1/SLC22A12) (Homo sapiens, UniProt Q96S37)
# T1 sequence (Q96S37 1-553): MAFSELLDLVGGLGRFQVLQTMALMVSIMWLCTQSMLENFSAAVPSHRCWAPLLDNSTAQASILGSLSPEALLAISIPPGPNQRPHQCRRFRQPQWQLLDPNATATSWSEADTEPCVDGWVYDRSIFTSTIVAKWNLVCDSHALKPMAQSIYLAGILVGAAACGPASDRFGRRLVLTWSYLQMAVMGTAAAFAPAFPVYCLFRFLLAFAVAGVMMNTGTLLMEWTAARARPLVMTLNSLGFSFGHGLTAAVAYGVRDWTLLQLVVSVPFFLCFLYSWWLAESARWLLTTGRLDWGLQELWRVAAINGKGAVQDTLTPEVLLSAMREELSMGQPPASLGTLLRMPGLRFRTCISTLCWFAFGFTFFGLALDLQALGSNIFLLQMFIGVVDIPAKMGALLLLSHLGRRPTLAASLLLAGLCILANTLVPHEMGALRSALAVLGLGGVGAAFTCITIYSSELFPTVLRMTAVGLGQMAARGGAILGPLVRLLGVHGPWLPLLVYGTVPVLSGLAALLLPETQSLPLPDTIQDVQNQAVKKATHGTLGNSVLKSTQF
# [2] = molecular target: T1, urate transporter 1 (URAT1/SLC22A12); experiment: [[…]-14C]-urate uptake inhibition in URAT1-expressing […] cells; assay type: cell-based; design: EGFP-tagged URAT1 wild type (pEGFP-C1)
SMILES,IC50 [2],also measured
CCc1oc2ccccc2c1C(=O)c1cc(Br)c(O)c(Br)c1 [benzbromarone],,% inhibition at 10 μM [1]: 96
COc1ccc([C@@H]2CC(=O)c3c(O)cc(O)cc3O2)cc1O [hesperetin],25.7 µM,
O=C1C[C@@H](c2ccc(O)cc2)Oc2cc(O)cc(O)c21 [naringenin],16.1 µM,
COc1ccc(-c2cc(=O)c3c(OC)c(OC)c(OC)c(OC)c3o2)cc1OC [nobiletin],,IC50 ([2]; read-out: IC50): 17.6 µM
